According to the supplement of paper PMC8671470:

Experiments:
Conditions in all cases: 72 h
LAMA-84 = assay: cell viability (% survival relative to DMSO control, bortezomib = 0%); higher = less cytotoxic
Outline: (§1)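 Fifteen myeloid leukaemia cell lines (10 AML, 5 CML) were seeded at a density titrated to the linear growth range. They went into 384-well plates with compounds pre-printed at 1, 10, 100, 1000 or 10000 nM in duplicate. After 72 h at 37 °C with 5% CO2, viability was read by CellTiter-Glo luminescence. Values are percent survival, with vehicle set to 100% and a 10 µM positive control to 0%, averaged over the duplicates.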

THP-1 = assay: as above
Outline: as §1

Mono-Mac-6 = assay: as above
Outline: as §1

KG-1 = assay: as above
Outline: as §1

ML-2 = assay: as above
Outline: as §1

MOLM-13 = assay: as above
Outline: as §1

SHI-1 = assay: as above
Outline: as §1

K-562 = assay: as above
Outline: as §1

KCL-22 = assay: as above
Outline: as §1

KU-812 = assay: as above
Outline: as §1

BV-173 = assay: as above
Outline: as §1

NOMO-1 [1] = assay: as above
Outline: as §1

MV4-11 = assay: as above
Outline: as §1

HEL = assay: as above
Outline: as §1

HL-60 [2] = assay: as above
Outline: as §1

NOMO-1 [3] = tested on: NOMO-1
Outline: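 Seeded in RPMI 1640 at densities within the linear growth range, fifteen myeloid leukaemia cell lines were dispensed into 384-well plates with acoustically pre-printed compounds spanning five tenfold doses from 1 to 10,000 nM, in duplicate. The plates were kept for 72 h at 37 °C in 5% CO2 before luminescent ATP viability was measured and normalised to vehicle and to a positive control at 10 µM. Curves were fitted with a four-parameter log-logistic model. The IC50 was taken from those curves.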

HL-60 [4] = assay: area under dose-response curve (viability, 1 nM-10 uM) (fraction (0-1)); higher = more sensitive
Outline: (§2)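 In 384-well plates, the full library was rescreened in duplicate on HL-60 cells in RPMI 1640 with 10% FBS, at 1–10,000 nM in five tenfold concentrations, for 72 h at 37 °C, 5% CO2. Each run also held DMSO or 100 nM of one of three metabolic inhibitors. Viability was measured by CellTiter-Glo and normalised to DMSO wells and to wells with proteasome inhibitor, present at 10 μM. Any area under the curve comes from four-parameter log-logistic fitting with drc and PharmacoGx.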

HL-60 [5] = assay: cell viability (% survival relative to DMSO control); higher = less cytotoxic
Outline: as §2

c1ccc2c(c1)SCc1c-2[nH]c2ccccc12
Conditions	area under dose-response curve, co-treatment: AZD3965 100 nM	area under dose-response curve, co-treatment: DMSO vehicle	area under dose-response curve, co-treatment: GSK2194069 100 nM	area under dose-response curve, co-treatment: pictilisib 100 nM	cell viability, 1 nM [%]	cell viability, 10 nM [%]	cell viability, 100 nM [%]	cell viability, 1000 nM [%]	cell viability, 10000 nM [%]
BV-173	–	–	–	–	98.6	113	114	27.6	-0.875
HEL	–	–	–	–	106	102	94.6	94.9	7
HL-60 [2]	–	–	–	–	100	95.7	102	83	23.4
HL-60 [4]	< 0.0301	< 0.0301	< 0.0301	< 0.0301	–	–	–	–	–
K-562	–	–	–	–	100	100	103	108	12
KCL-22	–	–	–	–	96.1	93.2	100	80.9	1.24
KG-1	–	–	–	–	104	102	125	34.7	-0.763
KU-812	–	–	–	–	99.6	110	105	95.3	0.3
LAMA-84	–	–	–	–	106	103	111	109	16.6
ML-2	–	–	–	–	106	110	89.8	69	-1.13
MOLM-13	–	–	–	–	99.2	87	100	78.6	23.9
MV4-11	–	–	–	–	101	101	111	52.8	-0.521
Mono-Mac-6	–	–	–	–	97.8	105	103	95.3	-0.27
NOMO-1 [1]	–	–	–	–	97	107	108	98.2	0.816
SHI-1	–	–	–	–	101	96	89.1	84.7	3.75
THP-1	–	–	–	–	105	100	106	93.4	33.6

Conditions	IC50 (cell viability) [µM]
NOMO-1 [3]	3.12

cell viability [%], HL-60 [5]
Conditions	0.001 µM	0.01 µM	0.1 µM	1 µM	10 µM
co-treatment: AZD3965 100 nM	80.9	94.8	107	117	94.6
co-treatment: DMSO vehicle	102.4	101.01	98.13	101	96.9
co-treatment: GSK2194069 100 nM	96.7	100.7	103	96.4	93.2
co-treatment: pictilisib 100 nM	90.3	86.7	104	105	98.9
